In patent publication US9244081B2, “Cell-based fluorescent assays for identifying alpha and delta ENaC modulators” (Senomyx, Inc., priority 2006, dated 2016):

Key:
[1] = molecular target: T1, alphaENaC channel (human alpha, beta and gamma subunits) (Homo sapiens, UniProt P37088+P51168+P51170); experiment: FLIPR membrane potential dye assay, dye loaded in absence of sodium (Protocol 1), alphaENaC-transfected HEK293 cells; type: cell-based
T1 construct: expressed in transfected cells; host or cells: HEK293, transient transfection
T1 sequence (P37088 1-669): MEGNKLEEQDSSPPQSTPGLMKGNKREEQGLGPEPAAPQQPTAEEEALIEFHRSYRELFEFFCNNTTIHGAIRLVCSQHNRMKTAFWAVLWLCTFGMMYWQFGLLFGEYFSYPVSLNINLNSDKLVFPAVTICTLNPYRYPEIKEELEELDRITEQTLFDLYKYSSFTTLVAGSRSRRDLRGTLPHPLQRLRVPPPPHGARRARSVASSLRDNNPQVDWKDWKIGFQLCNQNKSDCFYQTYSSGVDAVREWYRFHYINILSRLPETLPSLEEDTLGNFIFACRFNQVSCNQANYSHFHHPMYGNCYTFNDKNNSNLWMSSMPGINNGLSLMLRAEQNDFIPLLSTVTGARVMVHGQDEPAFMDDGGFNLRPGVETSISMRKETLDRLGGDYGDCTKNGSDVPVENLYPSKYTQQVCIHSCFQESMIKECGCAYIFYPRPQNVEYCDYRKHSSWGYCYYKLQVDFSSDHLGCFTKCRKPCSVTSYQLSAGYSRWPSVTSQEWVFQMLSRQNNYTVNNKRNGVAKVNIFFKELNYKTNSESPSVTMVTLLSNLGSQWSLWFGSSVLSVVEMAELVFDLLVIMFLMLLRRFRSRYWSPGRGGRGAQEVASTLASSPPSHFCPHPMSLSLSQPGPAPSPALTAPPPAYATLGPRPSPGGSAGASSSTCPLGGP
T1 sequence (P51168 1-640): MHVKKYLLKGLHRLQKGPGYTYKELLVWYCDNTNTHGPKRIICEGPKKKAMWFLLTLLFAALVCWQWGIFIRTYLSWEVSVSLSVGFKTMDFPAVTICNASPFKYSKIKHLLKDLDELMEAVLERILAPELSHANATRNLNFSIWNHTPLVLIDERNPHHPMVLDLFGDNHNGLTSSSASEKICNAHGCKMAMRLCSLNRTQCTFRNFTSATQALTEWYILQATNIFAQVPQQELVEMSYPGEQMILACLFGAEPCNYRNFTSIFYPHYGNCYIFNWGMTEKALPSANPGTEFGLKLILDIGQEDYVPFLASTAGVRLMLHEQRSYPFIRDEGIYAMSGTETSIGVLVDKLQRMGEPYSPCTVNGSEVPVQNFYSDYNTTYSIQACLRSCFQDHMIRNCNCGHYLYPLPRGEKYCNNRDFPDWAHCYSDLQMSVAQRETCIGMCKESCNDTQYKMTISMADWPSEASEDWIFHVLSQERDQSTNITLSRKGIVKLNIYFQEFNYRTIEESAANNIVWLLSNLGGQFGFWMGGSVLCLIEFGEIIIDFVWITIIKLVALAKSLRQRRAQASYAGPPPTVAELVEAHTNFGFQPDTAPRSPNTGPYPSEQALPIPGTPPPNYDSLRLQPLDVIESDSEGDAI
T1 sequence (P51170 1-649): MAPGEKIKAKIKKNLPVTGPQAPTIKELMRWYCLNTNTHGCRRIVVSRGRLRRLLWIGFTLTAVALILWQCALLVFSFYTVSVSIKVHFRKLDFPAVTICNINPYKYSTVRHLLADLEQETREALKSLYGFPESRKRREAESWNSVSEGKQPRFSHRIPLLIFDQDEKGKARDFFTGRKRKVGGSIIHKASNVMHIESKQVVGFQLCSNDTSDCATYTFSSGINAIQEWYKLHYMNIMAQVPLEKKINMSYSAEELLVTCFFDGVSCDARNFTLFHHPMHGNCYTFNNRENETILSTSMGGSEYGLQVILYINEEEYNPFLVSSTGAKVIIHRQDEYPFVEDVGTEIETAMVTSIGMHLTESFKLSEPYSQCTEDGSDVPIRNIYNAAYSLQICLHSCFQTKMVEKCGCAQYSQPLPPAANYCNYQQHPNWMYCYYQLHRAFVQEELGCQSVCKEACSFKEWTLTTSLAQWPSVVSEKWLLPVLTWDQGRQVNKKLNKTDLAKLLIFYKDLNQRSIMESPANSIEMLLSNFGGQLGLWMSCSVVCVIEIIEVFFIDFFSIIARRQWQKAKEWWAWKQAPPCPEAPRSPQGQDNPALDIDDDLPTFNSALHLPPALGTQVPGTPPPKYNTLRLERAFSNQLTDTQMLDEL
Description: (§1) In this experiment HEK293 cells which were transfected with sequences encoding the human alpha, beta and gamma subunits were used to screen for the effect of amiloride on NaCl induced changes in membrane potential. […] These HEK293 cells were transiently transfected with plasmids containing the alpha, beta and gamma ENaC encoding nucleic acid sequences and then loaded with a membrane potential dye (FMP; Molecular Devices) in the absence of sodium (NaCl was replaced with NMDG) at room temperature for one hour. Cells were then stimulated with 70 mM NaCl with (red trace) or without (white trace) 6.25 micromolar amiloride. Changes in membrane potential (fluorescent signal) in HEK293 cells were monitored on a FLIPR system (Molecular Devices). […] HEK293 cells were transiently transfected with the gamma, beta, and delta subunit containing plasmids and were loaded with a membrane potential dye (FMP; Molecular Devices) in the absence of sodium (NaCl was replaced with NMDG) at room temperature for one hour. Cells were then stimulated with 70 mM NaCl with (red trace) or without (white trace) 50 micromolar amiloride. Changes in membrane potential (fluorescent signal) were monitored on a FLIPR system (Molecular Devices). […] Therein cells were prepared and treated as in Panels A and B. Increasing concentrations of amiloride were used to assess potency at inhibiting the different forms of ENaC.
This example relates to the fluorescent experiments contained in FIG. 2, Panels A, B and C. In the experiment in Panel A it can be seen that the enhancer S559 increases the NaCl-induced change in membrane potential in HEK293 cells expressing the alphaENaC channel. […] Changes in membrane potential (fluorescent signal) were monitored on a FLIPR system (Molecular Devices). […] Changes in membrane potential (Fluorescent signal) were monitored on a FLIPR system (Molecular Devices).

[2] = test system: perceived human salt intensity; settings: concentrations that specifically modulate ENaC function; cited from earlier work
[3] = test system: HEK293 cells; experiment: FLIPR membrane potential control in mock-transfected or un-transfected HEK293 cells (Protocol 2); type: cell-based; settings: HEK293 transfected with mock plasmid (pUC19)
Protocol: In the experiment HEK293 cells again transfected transiently with plasmids containing the alpha, beta, and gamma ENaC subunit nucleic acid sequences and were treated as described in Example 2., Panel B (Protocol 2). Changes in membrane potential (fluorescent signal) were monitored on a FLIPR system (Molecular Devices). […] HEK293 cells were transfected with a mock plasmid (pUC19) and treated as described above. Changes in membrane potential (fluorescent signal) were monitored on a FLIPR system (Molecular Devices).
HEK293 cells transiently transfected with plasmids containing nucleic acid sequences encoding the human delta, beta and gamma ENaC subunits and were treated as described in FIG. 2; Panel B (Protocol 2).

[4] = molecular target: T2, deltaENaC channel (gamma, beta, and delta subunit) (Homo sapiens, UniProt P51168+P51170+P51172); experiment: FLIPR membrane potential dye assay, dye loaded in absence of sodium (Protocol 1), deltaENaC-transfected HEK293 cells; type: cell-based; settings: 50 micromolar amiloride; 70 mM NaCl stimulus; dye loaded without sodium (NMDG)
T2 construct: expressed in transfected cells; host or cells: HEK293, transient transfection
T2 sequence (P51172 1-638 isoform P51172-1): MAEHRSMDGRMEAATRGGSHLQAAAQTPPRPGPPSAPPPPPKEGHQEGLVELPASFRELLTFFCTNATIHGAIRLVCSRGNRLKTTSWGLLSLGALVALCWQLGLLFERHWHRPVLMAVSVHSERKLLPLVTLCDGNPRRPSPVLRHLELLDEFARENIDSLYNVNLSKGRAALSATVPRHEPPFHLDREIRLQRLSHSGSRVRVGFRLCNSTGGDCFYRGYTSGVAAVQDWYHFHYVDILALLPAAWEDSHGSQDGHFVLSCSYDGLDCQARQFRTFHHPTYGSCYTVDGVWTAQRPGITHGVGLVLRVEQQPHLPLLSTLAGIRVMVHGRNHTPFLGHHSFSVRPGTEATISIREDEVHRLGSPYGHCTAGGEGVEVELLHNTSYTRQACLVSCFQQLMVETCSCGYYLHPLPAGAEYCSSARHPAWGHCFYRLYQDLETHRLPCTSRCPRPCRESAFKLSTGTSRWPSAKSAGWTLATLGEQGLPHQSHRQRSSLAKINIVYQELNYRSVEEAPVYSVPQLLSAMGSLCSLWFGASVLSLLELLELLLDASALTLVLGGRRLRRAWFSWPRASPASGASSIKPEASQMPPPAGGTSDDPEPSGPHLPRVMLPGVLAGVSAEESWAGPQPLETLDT
T2 sequence (P51168 1-640): T1 sequence (P51168 1-640)
T2 sequence (P51170 1-649): T1 sequence (P51170 1-649)
Description: as §1

[5] = test system: perceived human salt intensity; experiment: Human salty taste intensity test; type: in vivo; settings: 300-fold (amiloride) and 3000-fold (benzamil) above IC50 for alpha beta gamma ENaC in oocytes
Description: Unlike other mammals, amiloride only slightly reduces the intensity of sodium chloride taste, i.e., by about 15-20% when used at concentrations that specifically modulate ENaC function. […] Thus, additional non-ENaC genes are likely involved in human taste and other biological functions.

[6] = molecular target: T3, alphaENaC channel (alpha, beta and gamma ENaC subunits) (Homo sapiens, UniProt P37088+P51168+P51170); experiment: FLIPR membrane potential dye assay, dye loaded in 140 mM NaCl (Protocol 2), alphaENaC-transfected HEK293 cells; type: cell-based; settings: 3 micromolar amiloride
T3 construct: expressed in transfected cells; host or cells: HEK293, transient transfection
T3 sequence (P37088 1-669): T1 sequence (P37088 1-669)
T3 sequence (P51168 1-640): T1 sequence (P51168 1-640)
T3 sequence (P51170 1-649): T1 sequence (P51170 1-649)
Description: This example relates to the fluorescent experiments contained in FIG. 2, Panels A, B and C. In the experiment in Panel A it can be seen that the enhancer S559 increases the NaCl-induced change in membrane potential in HEK293 cells expressing the alphaENaC channel. HEK293 cells were transiently transfected with plasmids containing sequences encoding the human alpha, beta, and gamma ENaC subunits and were loaded with a membrane potential dye (FMP; Molecular Devices) in the absence of sodium (NaCl was replaced with NMDG) at room temperature for one hour. Cells were then stimulated with 17.5 mM NaCl with (red trace) and without (white trace) 15 micromolar S559. Changes in membrane potential (fluorescent signal) were monitored on a FLIPR system (Molecular Devices). […] Changes in membrane potential (Fluorescent signal) were monitored on a FLIPR system (Molecular Devices).
In the experiment HEK293 cells again transfected transiently with plasmids containing the alpha, beta, and gamma ENaC subunit nucleic acid sequences and were treated as described in Example 2., Panel B (Protocol 2). Changes in membrane potential (fluorescent signal) were monitored on a FLIPR system (Molecular Devices). […] Changes in membrane potential (fluorescent signal) were monitored on a FLIPR system (Molecular Devices). […]

| SMILES | inhibition of NaCl induced changes in membrane potential ([1]; 6.25 micromolar amiloride, 70 mM NaCl stimulus, dye loaded without sodium (NMDG)) | apparent affinity on α-ENaC transfected cells relative to δ-ENaC transfected cells ([1]; dye loaded in absence of sodium, sodium add back) | potency at inhibiting alphaENaC versus deltaENaC ([1]; increasing concentrations of amiloride, cells treated as in Panels A and B) | reduction of intensity of sodium chloride taste [2] | effect on membrane potential in cells that do not express alphaENaC [3] | inhibition of NaCl induced change in membrane potential [4] | effect on perceived human salt intensity [5] | block of S559 enhancer effects [6] |
| --- | --- | --- | --- | --- | --- | --- | --- | --- |
| N=C(N)NC(=O)c1nc(Cl)c(N)nc1N [amiloride] | totally inhibited | at least 10 fold | more potent at inhibiting alphaENaC than deltaENaC | 15-20% | do not exhibit any effect | totally inhibited | did not elicit a significant effect | almost totally abolishes |
| NC(=Nc1ccccc1)NC(=O)c1nc(Cl)c(N)nc1N [phenamil] | – | – | – | – | – | – | did not elicit a significant effect | – |
